pIC50: −log10 of the molar value.
Tested on: mutant Huntington (HTT) protein
Assay: HTT Mutant HTRF iPSC assay (mHTT protein lowering)
Format: cell-based
Conditions: human iPSC derived from a HTT patient with a poly-Q49 mutation

SMILES | pIC50
Cc1cn2nc(-c3cc(F)c4[nH]c(C5CCC6(CC5)CNC6)nc4c3)cc(C)c2n1 [Compound 424, 6-(7-fluoro-2-(2-azaspiro[3.5]nonan-7-yl)-1H-benzo[d]imidazol-5-yl)-2,8-dimethylimidazo[1,2-b]pyridazine] | 6.00 to 7.00
CCN1CCC(c2nc3cc(-c4cc(C)c5nc(C)cn5n4)cc(F)c3[nH]2)CC1 [Compound 425, 6-(2-(1-ethylpiperidin-4-yl)-7-fluoro-1H-benzo[d]imidazol-5-yl)-2,8-dimethylimidazo[1,2-b]pyridazine] | 6.00 to 7.00
Cc1cn2nc(-c3cc(F)c4[nH]c(C5CCN(C6CCC6)CC5)nc4c3)cc(C)c2n1 [Compound 426, 6-(2-(1-cyclobutylpiperidin-4-yl)-7-fluoro-1H-benzo[d]imidazol-5-yl)-2,8-dimethylimidazo[1,2-b]pyridazine] | > 7.00
Cc1cn2nc(-c3cc(F)c4[nH]c(C5CCN(C6CCCC6)CC5)nc4c3)cc(C)c2n1 [Compound 427, 6-(2-(1-cyclopentylpiperidin-4-yl)-7-fluoro-1H-benzo[d]imidazol-5-yl)-2,8-dimethylimidazo[1,2-b]pyridazine] | > 7.00
Cc1cn2nc(-c3cc(F)c4[nH]c(C5CC6CCC(C5)N6)nc4c3)cc(C)c2n1 (stereo not drawn) [Compound 428, 6-(2-(8-azabicyclo[3.2.1]octan-3-yl)-7-fluoro-1H-benzo[d]imidazol-5-yl)-2,8-dimethylimidazo[1,2-b]pyridazine] | > 7.00
Cc1cn2nc(-c3cc(F)c4[nH]c(C5C6CNCC65)nc4c3)cc(C)c2n1 (stereo not drawn) [Compound 429, 6-(2-(3-azabicyclo[3.1.0]hexan-6-yl)-7-fluoro-1H-benzo[d]imidazol-5-yl)-2,8-dimethylimidazo[1,2-b]pyridazine] | > 7.00
Cc1cn2nc(-c3cc(F)c4[nH]c(C5C6CN(C)CC65)nc4c3)cc(C)c2n1 (stereo not drawn) [Compound 430, 6-(7-fluoro-2-(3-methyl-3-azabicyclo[3.1.0]hexan-6-yl)-1H-benzo[d]imidazol-5-yl)-2,8-dimethylimidazo[1,2-b]pyridazine] | > 7.00
Cc1cn2cc(-c3cc(F)c4nc(C5CCNCC5)nn4c3)cc2c(C)n1 [Compound 431, 6-(1,3-dimethylpyrrolo[1,2-a]pyrazin-7-yl)-8-fluoro-2-(piperidin-4-yl)-[1,2,4]triazolo[1,5-a]pyridine] | 6.00 to 7.00
Cc1cc(-c2cc(F)c3nc(C4CCNCC4)nn3c2)cc2cn(C)nc12 [Compound 432, 6-(2,7-dimethyl-2H-indazol-5-yl)-8-fluoro-2-(piperidin-4-yl)-[1,2,4]triazolo[1,5-a]pyridine] | 6.00 to 7.00
Cc1cn2nc(-c3cc(F)c4nc(C5CCN(C6CC6)CC5)nn4c3)cc(C)c2n1 [Compound 433, 2-(1-cyclopropylpiperidin-4-yl)-6-(2,8-dimethylimidazo[1,2-b]pyridazin-6-yl)-8-fluoro-[1,2,4]triazolo[1,5-a]pyridine] | 6.00 to 7.00
Cc1cn2nc(-c3cc(F)c4nc(C5CCN(C)CC5)nn4c3)cc(C)c2n1 [Compound 434, 6-(2,8-dimethylimidazo[1,2-b]pyridazin-6-yl)-8-fluoro-2-(1-methylpiperidin-4-yl)-[1,2,4]triazolo[1,5-a]pyridine] | 6.00 to 7.00
CCN1CCC(c2nc3c(F)cc(-c4cc(C)c5nc(C)cn5n4)cn3n2)CC1 [Compound 435, 6-(2,8-dimethylimidazo[1,2-b]pyridazin-6-yl)-2-(1-ethylpiperidin-4-yl)-8-fluoro-[1,2,4]triazolo[1,5-a]pyridine] | 6.00 to 7.00
Cc1cn2nc(-c3cc(F)c4nc(C5CCN(CC(C)(C)C)CC5)nn4c3)cc(C)c2n1 [Compound 436, 6-(2,8-dimethylimidazo[1,2-b]pyridazin-6-yl)-8-fluoro-2-(1-neopentylpiperidin-4-yl)-[1,2,4]triazolo[1,5-a]pyridine] | 6.00 to 7.00
Cc1cn2nc(-c3cc(F)c4nc(C5CCN(C6CCC6)CC5)nn4c3)cc(C)c2n1 [Compound 437, 2-(1-cyclobutylpiperidin-4-yl)-6-(2,8-dimethylimidazo[1,2-b]pyridazin-6-yl)-8-fluoro-[1,2,4]triazolo[1,5-a]pyridine] | 6.00 to 7.00
Cc1cn2nc(-c3cc(F)c4nc(C5CCN(CC6CC6)CC5)nn4c3)cc(C)c2n1 [Compound 438, 2-(1-(cyclopropylmethyl)piperidin-4-yl)-6-(2,8-dimethylimidazo[1,2-b]pyridazin-6-yl)-8-fluoro-[1,2,4]triazolo[1,5-a]pyridine] | 6.00 to 7.00
COCCN1CCC(c2nc3c(F)cc(-c4cc(C)c5nc(C)cn5n4)cn3n2)CC1 [Compound 439, 6-(2,8-dimethylimidazo[1,2-b]pyridazin-6-yl)-8-fluoro-2-[1-(2-methoxyethyl)-4-piperidyl]-[1,2,4]triazolo[1,5-a]pyridine] | 6.00 to 7.00
Cc1cn2nc(-c3cc(F)c4nc(CC5CNC5)nn4c3)cc(C)c2n1 [Compound 440, 2-(azetidin-3-ylmethyl)-6-(2,8-dimethylimidazo[1,2-b]pyridazin-6-yl)-8-fluoro-[1,2,4]triazolo[1,5-a]pyridine] | 6.00 to 7.00
Cc1cn2nc(-c3cc(F)c4nc(C5CCN(Cc6ncccn6)CC5)nn4c3)cc(C)c2n1 [Compound 441, 6-(2,8-dimethylimidazo[1,2-b]pyridazin-6-yl)-8-fluoro-2-(1-(pyrimidin-2-ylmethyl)piperidin-4-yl)-[1,2,4]triazolo[1,5-a]pyridine] | 6.00 to 7.00
Cc1cn2nc(-c3cc(F)c4nc(C5CC6(CNC6)C5)nn4c3)cc(C)c2n1 [Compound 442, 6-(2,8-dimethylimidazo[1,2-b]pyridazin-6-yl)-8-fluoro-2-(2-azaspiro[3.3]heptan-6-yl)-[1,2,4]triazolo[1,5-a]pyridine] | 6.00 to 7.00
Cc1cn2nc(-c3cc(F)c4nc([C@H]5[C@@H]6CNC[C@@H]65)nn4c3)cc(C)c2n1 [Compound 443, 2-[(1R,5S)-3-azabicyclo[3.1.0]hexan-6-yl]-6-(2,8-dimethylimidazo[1,2-b]pyridazin-6-yl)-8-fluoro-[1,2,4]triazolo[1,5-a]pyridine] | > 7.00
Cc1cn2nc(-c3cc(F)c4nc(C5CCN(CC6CCC6)CC5)nn4c3)cc(C)c2n1 [Compound 444, 2-(1-(cyclobutylmethyl)piperidin-4-yl)-6-(2,8-dimethylimidazo[1,2-b]pyridazin-6-yl)-8-fluoro-[1,2,4]triazolo[1,5-a]pyridine] | 6.00 to 7.00
Cc1cn2nc(-c3cc(F)c4nc(C5CCC(C)(C)NC5)nn4c3)cc(C)c2n1 (stereo not drawn) [Compound 445, 6-(2,8-dimethylimidazo[1,2-b]pyridazin-6-yl)-2-(6,6-dimethylpiperidin-3-yl)-8-fluoro-[1,2,4]triazolo[1,5-a]pyridine] | 6.00 to 7.00
Cc1cn2nc(-c3cc(F)c4nc(CC5CNCCO5)nn4c3)cc(C)c2n1 (stereo not drawn) [Compound 446, 2-((6-(2,8-dimethylimidazo[1,2-b]pyridazin-6-yl)-8-fluoro-[1,2,4]triazolo[1,5-a]pyridin-2-yl)methyl)morpholine] | 6.00 to 7.00
Cc1cn2nc(-c3cc(F)c4nc(C5CCC(N(C)C)CC5)nn4c3)cc(C)c2n1 (stereo not drawn) [Compound 447, 4-(6-(2,8-dimethylimidazo[1,2-b]pyridazin-6-yl)-8-fluoro-[1,2,4]triazolo[1,5-a]pyridin-2-yl)-N,N-dimethylcyclohexan-1-amine] | 6.00 to 7.00
